# Literature values as cited in US20050038473A1, “Device and method for the treatment of pilosebaceous disorders” (priority 2003, published 2005).
# Read-outs that look alike come from different tables or passages of the source.
# Legend:
# androgen receptors = target: T1, androgen receptors (Homo sapiens, UniProt P10275); conditions: compared with testosterone
# T1 sequence (P10275 1-920): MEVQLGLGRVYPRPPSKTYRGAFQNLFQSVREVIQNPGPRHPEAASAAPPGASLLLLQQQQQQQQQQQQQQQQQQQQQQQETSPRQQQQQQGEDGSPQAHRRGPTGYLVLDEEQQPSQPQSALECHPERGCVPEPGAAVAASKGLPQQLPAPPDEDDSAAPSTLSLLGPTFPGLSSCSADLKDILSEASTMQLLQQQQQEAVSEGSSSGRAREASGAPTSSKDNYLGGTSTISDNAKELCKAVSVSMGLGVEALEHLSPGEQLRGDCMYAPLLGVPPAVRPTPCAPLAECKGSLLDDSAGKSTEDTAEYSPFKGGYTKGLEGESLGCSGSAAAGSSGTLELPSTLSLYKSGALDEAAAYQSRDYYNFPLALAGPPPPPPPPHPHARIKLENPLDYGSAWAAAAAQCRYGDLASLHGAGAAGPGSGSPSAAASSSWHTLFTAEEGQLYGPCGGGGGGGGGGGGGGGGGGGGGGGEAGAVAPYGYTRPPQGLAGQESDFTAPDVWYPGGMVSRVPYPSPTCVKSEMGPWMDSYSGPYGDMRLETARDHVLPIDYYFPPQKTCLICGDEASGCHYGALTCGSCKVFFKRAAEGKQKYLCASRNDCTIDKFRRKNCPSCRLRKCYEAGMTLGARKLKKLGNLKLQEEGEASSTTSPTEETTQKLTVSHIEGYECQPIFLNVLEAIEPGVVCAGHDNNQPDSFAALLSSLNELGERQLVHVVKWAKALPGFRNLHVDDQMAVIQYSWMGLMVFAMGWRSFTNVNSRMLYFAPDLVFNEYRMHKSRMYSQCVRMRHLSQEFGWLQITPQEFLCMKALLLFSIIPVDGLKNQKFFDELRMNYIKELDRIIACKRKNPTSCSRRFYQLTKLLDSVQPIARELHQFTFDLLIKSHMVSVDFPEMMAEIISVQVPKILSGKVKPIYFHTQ
# idiopathic hirsutism = conditions: women with idiopathic hirsutism taking flutamide
# [1] = system: in-vitro hair follicle cultures; conditions: 5-alpha-reductase blocker, versus finasteride
smiles,measurement,setting,value
"C=C1/C(=C\C=C2/CCC[C@]3(C)[C@@H]([C@H](C)CCCC(C)(C)O)CC[C@@H]23)C[C@@H](O)C[C@@H]1O [1,25-dihydroxyvitamin D3]",effect on hair and hair follicle growth,hair follicles; high concentration (100 nM) and after longer contact,inhibits
same,effect on hair and hair follicle growth,"hair follicles; low concentration (1-10 nM), direct contact with hair follicles",stimulates
CC1(C)C(=O)N(c2ccc(C#N)c(C(F)(F)F)c2)C(=S)N1CCCCO [RU 59063],affinity for androgen receptors relative to the affinity of testosterone,androgen receptors,three times higher
CC(C)C(=O)Nc1ccc([N+](=O)[O-])c(C(F)(F)F)c1 [flutamide],"disturbance of plasma levels of gonadotropins, testosterone, androstenedione or dehydroepiandrostenedione",idiopathic hirsutism,without disturbance
"CCN(CC)C(=O)[C@H]1CC[C@H]2[C@@H]3CC[C@H]4N(C)C(=O)CC[C@]4(C)[C@H]3CC[C@]12C [17-beta-N,N-diethylcarbamyl-4-methyl-4-aza-5-androstan-3-one]",effect on in-vitro hair follicle cultures compared with finasteride,[1],greater effect
CN1C(=S)N(c2ccc(C#N)c(C(F)(F)F)c2)C(=O)C1(C)C [RU 56187],affinity for androgen receptors relative to the affinity of testosterone,androgen receptors,three times higher
